In this assay the target is T1, TRPL (TRPL::EGFP) (Drosophila melanogaster, UniProt P48994).
T1 sequence (P48994 1-1124): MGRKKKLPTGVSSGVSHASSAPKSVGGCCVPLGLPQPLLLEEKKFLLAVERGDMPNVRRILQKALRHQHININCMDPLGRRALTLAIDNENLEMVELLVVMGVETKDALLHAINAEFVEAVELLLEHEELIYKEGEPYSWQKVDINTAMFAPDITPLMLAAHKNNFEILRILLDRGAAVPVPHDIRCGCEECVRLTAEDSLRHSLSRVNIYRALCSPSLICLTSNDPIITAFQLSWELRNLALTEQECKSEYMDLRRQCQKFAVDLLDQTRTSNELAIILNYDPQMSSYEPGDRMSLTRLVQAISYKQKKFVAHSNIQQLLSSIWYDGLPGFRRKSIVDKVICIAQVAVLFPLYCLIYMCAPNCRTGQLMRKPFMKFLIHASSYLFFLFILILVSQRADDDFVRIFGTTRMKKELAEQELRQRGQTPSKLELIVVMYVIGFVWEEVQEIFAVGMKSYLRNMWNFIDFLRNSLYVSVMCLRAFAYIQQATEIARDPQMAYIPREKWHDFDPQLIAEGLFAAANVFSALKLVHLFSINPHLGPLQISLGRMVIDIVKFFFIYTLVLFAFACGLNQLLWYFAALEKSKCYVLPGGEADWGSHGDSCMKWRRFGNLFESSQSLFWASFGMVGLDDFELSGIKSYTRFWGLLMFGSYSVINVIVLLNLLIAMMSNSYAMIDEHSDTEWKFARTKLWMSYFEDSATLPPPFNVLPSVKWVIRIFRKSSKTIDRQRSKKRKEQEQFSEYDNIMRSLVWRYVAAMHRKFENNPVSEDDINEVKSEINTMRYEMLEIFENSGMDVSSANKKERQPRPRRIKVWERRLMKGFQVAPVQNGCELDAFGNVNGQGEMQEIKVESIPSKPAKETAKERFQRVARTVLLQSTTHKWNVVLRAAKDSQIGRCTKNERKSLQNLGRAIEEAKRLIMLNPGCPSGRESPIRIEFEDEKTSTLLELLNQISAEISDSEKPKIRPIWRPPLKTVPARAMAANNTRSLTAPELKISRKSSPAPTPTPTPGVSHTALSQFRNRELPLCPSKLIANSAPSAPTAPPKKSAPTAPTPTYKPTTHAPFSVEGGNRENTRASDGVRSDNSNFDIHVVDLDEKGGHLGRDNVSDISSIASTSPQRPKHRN
Nature of the assay: Fura-2 Ca2+ imaging, S2 cells. Type of assay: cell-based.

For orientation: EC50 means the concentration that produces a half-maximal response. The low end stands for a more potent agent, the high end for a less potent agent. As for `CCCCC/C=C\C/C=C\CCCCCCCC(=O)OC(CO)CO` [2-LG, 2-linoleoyl glycerol], the response was half-maximal at 5.23 µM (EC50).
Then `CCCCC/C=C\C/C=C\CCCCCCCC(=O)NCCO` [LEA, linoleoyl ethanolamide], with 7.04 µM; and `CCCCC/C=C\C/C=C\CCCCCCCC(=O)NCC(=O)O` [LinGly, linoleoyl glycine], with 2.99 µM.

These data come from PMC9633101 (Science signaling, 2022).
